Key:
[1] = molecular target: Histamine H3 receptor (Homo sapiens) (UniProt Q9Y5N1); conditions: Compound concentration 10.0 uM
[2] = molecular target: 5'-AMP-activated protein kinase catalytic subunit alpha-1 (Homo sapiens) (UniProt Q13131); conditions: Compound concentration 100.0 nM
[3] = test system: Tyrosine-protein kinase ABL1 (Homo sapiens), P00519 [T315I]; conditions: Compound concentration 100.0 nM
[4] = molecular target: Tyrosine-protein kinase Fgr (Homo sapiens) (UniProt P09769); conditions: Compound concentration 100.0 nM
[5] = molecular target: Serine/threonine-protein kinase LATS1 (Homo sapiens) (UniProt O95835); conditions: Compound concentration 100.0 nM
[6] = molecular target: SRSF protein kinase 1 (Homo sapiens) (UniProt Q96SB4); conditions: Compound concentration 100.0 nM
[7] = molecular target: Ribosomal protein S6 kinase alpha-4 (Homo sapiens) (UniProt O75676); conditions: Compound concentration 100.0 nM
[8] = molecular target: Glycogen synthase kinase-3 alpha (Homo sapiens) (UniProt P49840); conditions: Compound concentration 100.0 nM
Glycogen synthase kinase-3 alpha (Homo sapiens), sequence (P49840 2-483 limits assumed): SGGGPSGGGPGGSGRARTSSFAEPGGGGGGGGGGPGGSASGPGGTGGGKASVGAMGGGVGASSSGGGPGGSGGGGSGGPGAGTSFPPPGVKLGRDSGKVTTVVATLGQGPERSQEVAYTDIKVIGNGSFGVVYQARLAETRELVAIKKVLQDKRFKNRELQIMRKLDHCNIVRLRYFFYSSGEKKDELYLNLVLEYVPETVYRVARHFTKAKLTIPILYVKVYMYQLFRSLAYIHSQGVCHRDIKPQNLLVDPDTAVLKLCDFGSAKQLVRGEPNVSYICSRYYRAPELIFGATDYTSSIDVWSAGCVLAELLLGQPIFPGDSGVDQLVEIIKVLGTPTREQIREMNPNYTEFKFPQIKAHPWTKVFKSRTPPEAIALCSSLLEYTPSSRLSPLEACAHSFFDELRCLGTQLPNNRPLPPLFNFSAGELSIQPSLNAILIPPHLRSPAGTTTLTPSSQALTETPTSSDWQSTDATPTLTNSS

[9] = test system: Tyrosine-protein kinase ABL1 (Homo sapiens), P00519 [H396P]; conditions: Compound concentration 100.0 nM
[10] = molecular target: Tyrosine-protein kinase receptor UFO (Homo sapiens) (UniProt P30530); conditions: Compound concentration 100.0 nM
[11] = molecular target: Phosphatidylinositol 4-phosphate 5-kinase type-1 alpha (Homo sapiens) (UniProt Q99755); conditions: Compound concentration 100.0 nM
[12] = molecular target: Tyrosine-protein kinase Yes (Homo sapiens) (UniProt P07947); conditions: Compound concentration 100.0 nM
[13] = molecular target: Calcium/calmodulin-dependent protein kinase kinase 1 (Homo sapiens) (UniProt Q8N5S9); conditions: Compound concentration 100.0 nM
[14] = molecular target: Dual specificity protein kinase CLK3 (Homo sapiens) (UniProt P49761); conditions: Compound concentration 100.0 nM
[15] = molecular target: Histamine H1 receptor (Homo sapiens) (UniProt P35367); conditions: Compound concentration 10.0 uM
Histamine H1 receptor (Homo sapiens), sequence (P35367 whole entry): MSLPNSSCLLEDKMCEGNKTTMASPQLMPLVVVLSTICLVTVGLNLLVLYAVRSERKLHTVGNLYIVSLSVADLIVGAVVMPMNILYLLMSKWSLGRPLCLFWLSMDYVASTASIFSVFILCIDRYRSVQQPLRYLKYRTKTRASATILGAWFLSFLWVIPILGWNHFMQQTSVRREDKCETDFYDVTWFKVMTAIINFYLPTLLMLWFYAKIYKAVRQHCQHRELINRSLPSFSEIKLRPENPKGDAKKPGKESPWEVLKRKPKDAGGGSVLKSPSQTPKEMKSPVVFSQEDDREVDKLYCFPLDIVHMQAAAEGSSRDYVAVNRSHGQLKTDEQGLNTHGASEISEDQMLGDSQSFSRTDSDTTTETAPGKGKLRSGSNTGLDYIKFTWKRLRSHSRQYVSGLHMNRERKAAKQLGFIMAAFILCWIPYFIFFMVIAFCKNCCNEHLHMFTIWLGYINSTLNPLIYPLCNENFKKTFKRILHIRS

[16] = molecular target: Dual specificity tyrosine-phosphorylation-regulated kinase 1A (Homo sapiens) (UniProt Q13627); conditions: Compound concentration 100.0 nM
[17] = molecular target: Testis-specific serine/threonine-protein kinase 3 (Homo sapiens) (UniProt Q96PN8); conditions: Compound concentration 100.0 nM
[18] = molecular target: Protein kinase C eta type (Homo sapiens) (UniProt P24723); conditions: Compound concentration 100.0 nM
[19] = molecular target: Cyclin-G-associated kinase (Homo sapiens) (UniProt O14976); conditions: Compound concentration 100.0 nM
Cyclin-G-associated kinase (Homo sapiens), sequence (O14976 whole entry): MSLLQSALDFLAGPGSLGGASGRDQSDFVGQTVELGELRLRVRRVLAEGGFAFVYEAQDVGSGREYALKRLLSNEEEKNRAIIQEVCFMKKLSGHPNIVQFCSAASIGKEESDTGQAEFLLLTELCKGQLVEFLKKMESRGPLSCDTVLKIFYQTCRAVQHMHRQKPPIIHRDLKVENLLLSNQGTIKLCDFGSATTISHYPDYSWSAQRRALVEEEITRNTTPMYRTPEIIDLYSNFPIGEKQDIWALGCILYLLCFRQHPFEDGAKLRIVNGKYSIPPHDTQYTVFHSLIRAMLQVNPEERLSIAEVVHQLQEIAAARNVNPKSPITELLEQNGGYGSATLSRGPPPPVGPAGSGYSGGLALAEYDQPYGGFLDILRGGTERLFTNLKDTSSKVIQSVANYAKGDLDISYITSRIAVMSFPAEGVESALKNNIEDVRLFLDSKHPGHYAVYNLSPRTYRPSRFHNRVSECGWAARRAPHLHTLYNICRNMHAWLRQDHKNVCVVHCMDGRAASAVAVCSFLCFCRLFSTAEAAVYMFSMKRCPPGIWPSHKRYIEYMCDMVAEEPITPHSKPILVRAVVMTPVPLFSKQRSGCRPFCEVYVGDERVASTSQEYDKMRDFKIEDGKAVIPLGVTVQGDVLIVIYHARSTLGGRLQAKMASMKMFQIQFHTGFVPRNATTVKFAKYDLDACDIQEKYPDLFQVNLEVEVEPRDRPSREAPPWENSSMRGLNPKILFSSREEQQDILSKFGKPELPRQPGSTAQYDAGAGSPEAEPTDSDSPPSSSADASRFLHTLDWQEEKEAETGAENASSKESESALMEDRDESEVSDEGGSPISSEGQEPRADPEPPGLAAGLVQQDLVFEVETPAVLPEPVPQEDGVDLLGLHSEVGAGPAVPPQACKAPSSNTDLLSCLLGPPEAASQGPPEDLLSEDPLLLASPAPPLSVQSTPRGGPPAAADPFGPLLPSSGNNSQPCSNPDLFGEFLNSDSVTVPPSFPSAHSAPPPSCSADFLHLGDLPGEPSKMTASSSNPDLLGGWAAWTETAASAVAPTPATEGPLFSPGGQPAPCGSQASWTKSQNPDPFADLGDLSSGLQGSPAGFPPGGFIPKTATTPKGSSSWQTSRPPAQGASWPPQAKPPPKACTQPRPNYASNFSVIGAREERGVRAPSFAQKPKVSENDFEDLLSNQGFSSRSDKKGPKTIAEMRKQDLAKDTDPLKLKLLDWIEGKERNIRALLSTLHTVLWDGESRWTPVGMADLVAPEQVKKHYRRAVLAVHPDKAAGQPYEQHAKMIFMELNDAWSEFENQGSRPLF

[20] = molecular target: Calcium/calmodulin-dependent protein kinase type IV (Homo sapiens) (UniProt Q16566); conditions: Compound concentration 100.0 nM
[21] = molecular target: Cyclin-dependent kinase 3 (Homo sapiens) (UniProt Q00526); conditions: Compound concentration 100.0 nM
[22] = molecular target: Dual specificity mitogen-activated protein kinase kinase 2 (Homo sapiens) (UniProt P36507); conditions: Compound concentration 100.0 nM
[23] = molecular target: Ribosomal protein S6 kinase alpha-2 (Homo sapiens) (UniProt Q15349); conditions: Compound concentration 100.0 nM
[24] = molecular target: Tyrosine-protein kinase JAK1 (Homo sapiens) (UniProt P23458); conditions: Compound concentration 100.0 nM
[25] = molecular target: 5-hydroxytryptamine receptor 1D (Homo sapiens) (UniProt P28221); conditions: Compound concentration 10.0 uM
[26] = molecular target: Dual serine/threonine and tyrosine protein kinase (Homo sapiens) (UniProt Q6XUX3); conditions: Compound concentration 100.0 nM
[27] = test system: Mast/stem cell growth factor receptor Kit (Homo sapiens), P10721 [V559D,T670I]; conditions: Compound concentration 100.0 nM
[28] = molecular target: Mitogen-activated protein kinase kinase kinase 19 (Homo sapiens) (UniProt Q56UN5); conditions: Compound concentration 100.0 nM
[29] = molecular target: AP2-associated protein kinase 1 (Homo sapiens) (UniProt Q2M2I8); conditions: Compound concentration 100.0 nM
AP2-associated protein kinase 1 (Homo sapiens), sequence (Q2M2I8 whole entry, looked up): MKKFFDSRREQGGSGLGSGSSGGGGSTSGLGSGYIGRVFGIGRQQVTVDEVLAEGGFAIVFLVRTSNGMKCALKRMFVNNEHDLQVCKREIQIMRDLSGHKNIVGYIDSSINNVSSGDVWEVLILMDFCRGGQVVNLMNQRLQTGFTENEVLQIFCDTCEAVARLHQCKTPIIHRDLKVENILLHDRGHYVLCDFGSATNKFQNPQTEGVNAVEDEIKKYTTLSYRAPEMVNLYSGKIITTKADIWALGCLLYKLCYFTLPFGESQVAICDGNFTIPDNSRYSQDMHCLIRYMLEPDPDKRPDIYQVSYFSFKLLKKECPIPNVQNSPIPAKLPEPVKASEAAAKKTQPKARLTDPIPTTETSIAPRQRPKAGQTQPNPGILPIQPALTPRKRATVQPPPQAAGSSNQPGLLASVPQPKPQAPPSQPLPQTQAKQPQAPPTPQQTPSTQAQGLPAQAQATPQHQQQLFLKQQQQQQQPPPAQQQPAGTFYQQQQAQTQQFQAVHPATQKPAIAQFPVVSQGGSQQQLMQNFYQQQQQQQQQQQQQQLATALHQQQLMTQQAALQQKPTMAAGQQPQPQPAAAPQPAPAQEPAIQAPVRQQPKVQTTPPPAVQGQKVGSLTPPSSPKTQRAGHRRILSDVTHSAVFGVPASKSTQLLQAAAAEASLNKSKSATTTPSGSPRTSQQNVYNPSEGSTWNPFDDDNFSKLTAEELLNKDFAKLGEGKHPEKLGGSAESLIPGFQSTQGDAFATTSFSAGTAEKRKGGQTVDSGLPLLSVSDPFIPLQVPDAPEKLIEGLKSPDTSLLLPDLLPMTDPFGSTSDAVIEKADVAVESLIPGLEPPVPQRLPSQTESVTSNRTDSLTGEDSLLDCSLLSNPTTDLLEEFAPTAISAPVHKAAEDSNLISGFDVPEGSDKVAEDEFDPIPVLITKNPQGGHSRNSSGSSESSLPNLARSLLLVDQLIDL

[30] = molecular target: Dual specificity tyrosine-phosphorylation-regulated kinase 1B (Homo sapiens) (UniProt Q9Y463); conditions: Compound concentration 100.0 nM
[31] = molecular target: 1-phosphatidylinositol 3-phosphate 5-kinase (Homo sapiens) (UniProt Q9Y2I7); conditions: Compound concentration 100.0 nM
[32] = molecular target: Phosphatidylinositol 4,5-bisphosphate 3-kinase catalytic subunit gamma isoform (Homo sapiens) (UniProt P48736); conditions: Compound concentration 100.0 nM
[33] = molecular target: Tyrosine-protein kinase FRK (Homo sapiens) (UniProt P42685); conditions: Compound concentration 100.0 nM
[34] = molecular target: Cyclin-dependent kinase 4 (Homo sapiens) (UniProt P11802); conditions: Compound concentration 100.0 nM
[35] = molecular target: Mitogen-activated protein kinase 13 (Homo sapiens) (UniProt O15264); conditions: Compound concentration 100.0 nM
[36] = molecular target: Insulin receptor (Homo sapiens) (UniProt P06213); conditions: Compound concentration 100.0 nM
[37] = molecular target: 5-hydroxytryptamine receptor 6 (Homo sapiens) (UniProt P50406); conditions: Compound concentration 10.0 uM
[38] = molecular target: Serine/threonine-protein kinase Sgk2 (Homo sapiens) (UniProt Q9HBY8); conditions: Compound concentration 100.0 nM
Serine/threonine-protein kinase Sgk2 (Homo sapiens), sequence (Q9HBY8 whole entry): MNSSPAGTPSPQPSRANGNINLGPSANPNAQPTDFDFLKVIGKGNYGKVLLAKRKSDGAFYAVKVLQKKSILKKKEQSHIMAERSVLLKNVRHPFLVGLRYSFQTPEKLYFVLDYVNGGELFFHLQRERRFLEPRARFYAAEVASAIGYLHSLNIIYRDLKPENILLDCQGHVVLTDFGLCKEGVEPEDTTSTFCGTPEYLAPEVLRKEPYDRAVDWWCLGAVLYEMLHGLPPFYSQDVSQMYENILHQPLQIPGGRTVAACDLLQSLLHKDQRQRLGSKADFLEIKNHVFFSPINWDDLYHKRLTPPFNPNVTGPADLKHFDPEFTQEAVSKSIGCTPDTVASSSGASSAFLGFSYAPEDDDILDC

[39] = molecular target: Receptor-interacting serine/threonine-protein kinase 2 (Homo sapiens) (UniProt O43353); conditions: Compound concentration 100.0 nM
[40] = test system: Mast/stem cell growth factor receptor Kit (Homo sapiens), P10721 [L576P]; conditions: Compound concentration 100.0 nM
[41] = molecular target: Serine/threonine-protein kinase RIO2 (Homo sapiens) (UniProt Q9BVS4); conditions: Compound concentration 100.0 nM
[42] = molecular target: Uncharacterized serine/threonine-protein kinase SBK3 (Homo sapiens) (UniProt P0C264); conditions: Compound concentration 100.0 nM
Uncharacterized serine/threonine-protein kinase SBK3 (Homo sapiens), sequence (P0C264 whole entry): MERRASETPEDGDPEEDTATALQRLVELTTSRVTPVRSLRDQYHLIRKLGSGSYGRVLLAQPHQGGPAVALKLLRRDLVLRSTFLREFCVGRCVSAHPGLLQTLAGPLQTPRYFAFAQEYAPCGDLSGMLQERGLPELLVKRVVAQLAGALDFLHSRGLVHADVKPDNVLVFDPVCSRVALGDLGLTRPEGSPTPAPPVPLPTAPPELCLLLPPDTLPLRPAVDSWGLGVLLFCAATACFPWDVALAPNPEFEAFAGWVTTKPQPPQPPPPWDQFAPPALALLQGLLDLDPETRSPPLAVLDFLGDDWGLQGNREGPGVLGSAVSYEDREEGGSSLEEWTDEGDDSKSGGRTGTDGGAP

[43] = molecular target: RAC-gamma serine/threonine-protein kinase (Homo sapiens) (UniProt Q9Y243); conditions: Compound concentration 100.0 nM
RAC-gamma serine/threonine-protein kinase (Homo sapiens), sequence (Q9Y243 whole entry): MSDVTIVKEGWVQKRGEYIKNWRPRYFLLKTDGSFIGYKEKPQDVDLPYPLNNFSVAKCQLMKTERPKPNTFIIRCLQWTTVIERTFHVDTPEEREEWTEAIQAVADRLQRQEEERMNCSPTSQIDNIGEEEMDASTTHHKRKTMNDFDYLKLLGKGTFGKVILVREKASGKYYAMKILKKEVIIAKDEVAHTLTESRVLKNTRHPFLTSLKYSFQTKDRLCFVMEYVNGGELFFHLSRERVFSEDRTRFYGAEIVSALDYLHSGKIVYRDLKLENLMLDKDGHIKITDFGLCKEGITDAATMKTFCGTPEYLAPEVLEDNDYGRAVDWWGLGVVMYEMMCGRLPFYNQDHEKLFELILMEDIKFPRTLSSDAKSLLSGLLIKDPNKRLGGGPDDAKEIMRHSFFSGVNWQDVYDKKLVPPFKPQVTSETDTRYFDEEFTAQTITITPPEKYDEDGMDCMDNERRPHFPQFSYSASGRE

[44] = molecular target: Mitogen-activated protein kinase kinase kinase kinase 1 (Homo sapiens) (UniProt Q92918); conditions: Compound concentration 100.0 nM
[45] = molecular target: Mitogen-activated protein kinase kinase kinase 12 (Homo sapiens) (UniProt Q12852); conditions: Compound concentration 100.0 nM

5'-AMP-activated protein kinase catalytic subunit alpha-1 (Homo sapiens), sequence (Q13131 whole entry, looked up): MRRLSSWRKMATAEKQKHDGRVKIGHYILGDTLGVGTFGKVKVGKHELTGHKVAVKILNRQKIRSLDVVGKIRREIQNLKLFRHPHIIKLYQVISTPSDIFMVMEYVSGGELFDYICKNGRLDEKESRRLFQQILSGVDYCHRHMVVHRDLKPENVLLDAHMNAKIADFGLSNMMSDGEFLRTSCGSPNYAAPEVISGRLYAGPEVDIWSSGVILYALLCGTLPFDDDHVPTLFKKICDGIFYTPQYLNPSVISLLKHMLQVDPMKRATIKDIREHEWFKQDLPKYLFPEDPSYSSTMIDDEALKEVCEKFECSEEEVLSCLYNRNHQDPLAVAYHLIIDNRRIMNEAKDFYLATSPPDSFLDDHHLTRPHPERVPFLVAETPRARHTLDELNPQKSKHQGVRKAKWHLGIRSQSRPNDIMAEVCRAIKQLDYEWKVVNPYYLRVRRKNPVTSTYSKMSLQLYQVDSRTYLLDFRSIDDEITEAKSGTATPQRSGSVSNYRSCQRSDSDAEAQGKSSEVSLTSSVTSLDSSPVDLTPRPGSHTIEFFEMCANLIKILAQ

CCOC(=O)c1cc2cc(-c3cc(C(=O)NCc4ccc(C(=O)O)cc4)nn3C)ccc2[nH]1 [BI 4394]
inactive: inhibition [1] 8.18% | residual activity [2] 100% | residual activity [3] 92% | residual activity [4] 94% | residual activity [5] 97% | residual activity [6] 75% | residual activity [7] 86% | residual activity [8] 100% | residual activity [9] 88% | residual activity [10] 89% | residual activity [11] 100% | residual activity [12] 100% | residual activity [13] 100% | residual activity [14] 83% | inhibition [15] 9.64% | residual activity [16] 90% | residual activity [17] 91% | residual activity [18] 87% | residual activity [19] 85% | residual activity [20] 95% | residual activity [22] 83% | residual activity [23] 84% | residual activity [24] 94% | inhibition [25] 3.64% | residual activity [26] 69% | residual activity [27] 96% | residual activity [28] 75% | residual activity [29] 100% | residual activity [30] 100% | residual activity [31] 100% | residual activity [32] 90% | residual activity [33] 100% | residual activity [34] 82% | residual activity [35] 100% | residual activity [36] 81% | inhibition [37] 4.01% | residual activity [38] 100% | residual activity [39] 100% | residual activity [40] 100% | residual activity [41] 100% | residual activity [42] 87% | residual activity [43] 86% | residual activity [44] 100% | residual activity [45] 79%
active: residual activity [21] 43%

Cn1nc(C(=O)NCc2ccc(C(=O)O)cc2)cc1-c1ccc2[nH]ccc2c1 [BI 4395]
active: residual activity [6] 33%
inactive: inhibition [1] -4.12% | residual activity [2] 81% | residual activity [3] 71% | residual activity [4] 87% | residual activity [5] 100% | residual activity [7] 81% | residual activity [8] 61% | residual activity [9] 71% | residual activity [10] 89% | residual activity [11] 63% | residual activity [12] 84% | residual activity [13] 85% | residual activity [14] 95% | inhibition [15] 8.74% | residual activity [16] 98% | residual activity [17] 97% | residual activity [18] 84% | residual activity [19] 90% | residual activity [20] 92% | residual activity [21] 88% | residual activity [22] 85% | residual activity [23] 98% | residual activity [24] 84% | inhibition [25] 10.1% | residual activity [26] 96% | residual activity [27] 77% | residual activity [28] 85% | residual activity [29] 90% | residual activity [30] 100% | residual activity [31] 100% | residual activity [32] 64% | residual activity [33] 100% | residual activity [34] 96% | residual activity [35] 91% | residual activity [36] 100% | inhibition [37] 8.85% | residual activity [38] 54% | residual activity [39] 100% | residual activity [40] 59% | residual activity [41] 100% | residual activity [42] 79% | residual activity [43] 88% | residual activity [44] 97% | residual activity [45] 100%
